Data taken from PMC3074252 (Journal of medicinal chemistry, 2011).
Like-named read-outs stand apart in the source and are kept apart here.

Tests used:
[1] = test system: PC12 cells expressing G93A SOD1-YFP; assay type: cell-based
[2] = mice, 50 mg/kg peritoneally, 1 h after injection
in vivo = conditions: Sprague-Dawley, rat, iv, 1 mg/kg
G85R SOD1 = experiment: High content G85R-SOD1 aggregation assay; assay type: cell-based
[3] = test system: 68 in vitro radioligand binding assays; conditions: 10 μM, in duplicate, 68 assays
[4] = Sprague-Dawley rats, in PBS

| Structure (SMILES) | activity in cytotoxicity protection assay [1] | also measured |
| --- | --- | --- |
| O=C1C(=O)N(CCc2ccccc2)C(=O)N1CCc1ccccc1 [Compound 49, 1,3-Diphenethylimidazolidine-2,4,5-trione] | none was active | – |
| O=C1CCC(=O)N(CCc2ccccc2)C(=O)N1CCc1ccccc1 [Compound 52, 1,3-Diphenethyl-1,3-diazepane-2,4,7-trione] | none was active | – |
| O=C1CC(=O)N(CCc2ccccc2)C(=O)N1CCc1ccccc1 [Compound 7, 1,3-Diphenethylpyrimidine-2,4,6(1H,3H,5H)-trione] | – | blood level [2]: 150 µM; brain level [2]: 50 µM; clearance (in vivo): 133 mL/min/kg; reduction in aggregates, fluorescence images (G85R SOD1; cells treated with MG132 plus 10 μM compound): significant reduction in aggregates; reduction in the number of aggregates of G85R SOD1 (G85R SOD1; dose dependence): concentration dependent; inhibitory effect across profiling screen [3]: No significant inhibitory effect; AUC/Dose ([4]; 1 mg/kg i.v.): 126 ng · h/mL/dose; AUC/Dose ([4]; 1 mg/kg p.o.): 124 ng · h/mL/dose |
| O=c1cc(Cl)n(CCc2ccccc2)c(=O)n1CCc1ccccc1 [Compound 46, 6-chloro-1,3-diphenethylpyrimidine-2,4(1H,3H)-dione] | inactive | – |
| O=C1C(=O)N(C2CCCCC2)C(=O)N1C1CCCCC1 [Compound 51, 1,3-Dicyclohexylimidazolidine-2,4,5-trione] | none was active | – |
| CCCCN1C(=O)CC(=O)NC1=O [Compound 1, 1-Butylpyrimidine-2,4,6(1H,3H,5H)-trione] | no activity | – |
| COc1cc(=O)n(CCc2ccccc2)c(=O)n1CCc1ccccc1 [Compound 47, 6-methoxy-1,3-diphenethylpyrimidine-2,4(1H,3H)-dione] | inactive | – |
| O=C1CC(=O)N(C2CCCCC2)C(=O)N1 [Compound 2, 1-Cyclohexylpyrimidine-2,4,6(1H,3H,5H)-trione] | no activity | – |
| O=C1CC(=O)N(CCN2CCOCC2)C(=O)N1CCc1ccc(F)cc1 [Compound 34, 1-(4-Fluorophenethyl)-3-(2-morpholinoethyl)pyrimidine-2,4,6(1H,3H,5H)-trione] | inactive | – |
